Test results published in PubChem BioAssay AID1963437 (Molecular Pharmacology Branch, DTP, NCI, 2024).

Test system: OVCAR-8 complex spheroid, growth inhibition
Test: Anticancer human tumor OVCAR-8 cell line growth inhibition [Asc];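 also: spheroids exposed to agents for 7 days before readout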;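 as to viability, T/C: percent viability relative to DMSO vehicle wells taken as 100%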
Settings: for IC50: curve of first compound; for viability, T/C: stronger effect = lower value
Outline: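 Tumor cells were grown as multicellular spheroids with stromal HUVEC and mesenchymal stem cells and treated singly or in combination. Concentrations fell in half-log steps from the clinical Cmax, or from 10 microM where none was known.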

C=CC(=O)N1CCN(c2nc(=O)n(-c3c(C)ccnc3C(C)C)c3nc(-c4c(O)cccc4F)c(F)cc23)C(C)C1 (configuration not stated) + CNC(C)C(=O)NC1CN(S(=O)(=O)c2cccc(S(=O)(=O)N3CCC4CCC(C(=O)NC(c5ccccc5)c5ccccc5)N4C(=O)C(NC(=O)C(C)NC)C3)c2)CCC2CCC(C(=O)NC(c3ccccc3)c3ccccc3)N2C1=O showed an IC50 (second compound 0.00316 µM) greater than 10 µM, an IC50 (second compound 0.01 µM) greater than 10 µM and an IC50 (second compound 0.0316 µM) greater than 10 µM. For the same compound, the IC50 (second compound 0.1 µM) was greater than 10 µM, the IC50 (second compound 0.316 µM) was greater than 10 µM and the IC50 (second compound 1 µM) was greater than 10 µM. The viability, T/C (second compound 0.00316 µM, first compound 0.0316 µM) was 105%, the viability, T/C (second compound 0.00316 µM, first compound 0.1 µM) was 89.3% and the viability, T/C (second compound 0.00316 µM, first compound 0.316 µM) was 105%. It also gave a viability, T/C (second compound 0.00316 µM, first compound 1 µM) of 98.7%, a viability, T/C (second compound 0.00316 µM, first compound 3.16 µM) of 88.3% and a viability, T/C (second compound 0.00316 µM, first compound 10 µM) of 112%. It also gave a viability, T/C (second compound 0.01 µM, first compound 0.0316 µM) of 96.9%, a viability, T/C (second compound 0.01 µM, first compound 0.1 µM) of 95% and a viability, T/C (second compound 0.01 µM, first compound 0.316 µM) of 83.6%. The viability, T/C (second compound 0.01 µM, first compound 1 µM) was 89.2%, the viability, T/C (second compound 0.01 µM, first compound 3.16 µM) was 90.6% and the viability, T/C (second compound 0.01 µM, first compound 10 µM) was 122%. It also gave a viability, T/C (second compound 0.0316 µM, first compound 0.0316 µM) of 94.3%, a viability, T/C (second compound 0.0316 µM, first compound 0.1 µM) of 90.5% and a viability, T/C (second compound 0.0316 µM, first compound 0.316 µM) of 91.2%. For the same compound, the viability, T/C (second compound 0.0316 µM, first compound 1 µM) was 81.9%, the viability, T/C (second compound 0.0316 µM, first compound 3.16 µM) was 86.4% and the viability, T/C (second compound 0.0316 µM, first compound 10 µM) was 103%. The viability, T/C (second compound 0.1 µM, first compound 0.0316 µM) was 85.8%, the viability, T/C (second compound 0.1 µM, first compound 0.1 µM) was 81.4% and the viability, T/C (second compound 0.1 µM, first compound 0.316 µM) was 89.7%. For the same compound, the viability, T/C (second compound 0.1 µM, first compound 1 µM) was 86.1%, the viability, T/C (second compound 0.1 µM, first compound 3.16 µM) was 80% and the viability, T/C (second compound 0.1 µM, first compound 10 µM) was 92.2%. For the same compound, the viability, T/C (second compound 0.316 µM, first compound 0.0316 µM) was 80%, the viability, T/C (second compound 0.316 µM, first compound 0.1 µM) was 84.2% and the viability, T/C (second compound 0.316 µM, first compound 0.316 µM) was 107%. It also gave a viability, T/C (second compound 0.316 µM, first compound 1 µM) of 69.4%, a viability, T/C (second compound 0.316 µM, first compound 3.16 µM) of 79.6% and a viability, T/C (second compound 0.316 µM, first compound 10 µM) of 90.8%. For the same compound, the viability, T/C (second compound 1 µM, first compound 0.0316 µM) was 68.4%, the viability, T/C (second compound 1 µM, first compound 0.1 µM) was 79.8% and the viability, T/C (second compound 1 µM, first compound 0.316 µM) was 79.1%. For the same compound, the viability, T/C (second compound 1 µM, first compound 1 µM) was 84.7%, the viability, T/C (second compound 1 µM, first compound 3.16 µM) was 65.5% and the viability, T/C (second compound 1 µM, first compound 10 µM) was 69.1%.
